# Measured values reported in BindingDB's records for patent US10730849 (Merck Sharp & Dohme Corp., 2020).
# Target: T1, Stimulator of interferon genes protein [R71H,G230A,H232R,R293Q] (Homo sapiens, UniProt Q86WV6, G230A/H232R/R293Q/R71H)
# T1 construct: gene STING1
# Assay: STING Biochemical [3H]cGAMP Competition Assay
# Text: The binding assay employs STING receptor obtained from Hi-Five cell membranes overexpressing full-length HAQ STING prepared in-house and tritiated cGAMP ligand also purified in-house.
# T1 sequence (Q86WV6 whole entry R71H/G230A/H232R/R293Q, looked up): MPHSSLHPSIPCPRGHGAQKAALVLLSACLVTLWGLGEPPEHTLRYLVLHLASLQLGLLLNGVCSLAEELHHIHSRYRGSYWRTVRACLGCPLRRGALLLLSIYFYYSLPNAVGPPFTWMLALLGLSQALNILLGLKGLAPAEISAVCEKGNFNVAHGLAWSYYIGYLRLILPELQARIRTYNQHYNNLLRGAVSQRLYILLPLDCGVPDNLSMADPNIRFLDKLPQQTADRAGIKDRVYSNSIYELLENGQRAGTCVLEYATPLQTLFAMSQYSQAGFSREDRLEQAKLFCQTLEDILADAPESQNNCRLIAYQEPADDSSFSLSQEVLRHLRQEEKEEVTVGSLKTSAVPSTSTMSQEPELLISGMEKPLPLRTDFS
smiles,measurement,value
"COc1cc2cc(C(=O)CCC(=O)OC(C)(C)C)sc2cc1OC [US10730849, Example 12]",EC50,5.99 µM
